Patent US5151352A, “Process for producing diterpene compounds” (Kyowa Hakko Kogyo Co., Ltd., priority 1990, dated 1992)
Values after ≈ are worked out from the molar mass of the structure shown.

How the values were obtained:
[1] = system: Bacillus subtilis ATCC 10707; experiment: Antibacterial activity, agar dilution method (pH 7.0); format: cell-based; details: ATCC10707, read-out: minimum growth inhibition concentration (MIC)
Source text: (§1) The antibacterial activities of UCT4-B on four bacteria (i.e., Staphylococcus aureus, Enterococcus faecium, Bacillus subtilis, Klebsiella pneumoniae) were examined by the agar dilution method (pH 7.0)[refer to "Biseibutsu Jikken Manyuaru (Manual of The Microbial Experiments)" 80, Kodansha (1986)].
(§2) The results are shown in terms of the minimum growth inhibition concentration (MIC) in Table 2.

[2] = system: Enterococcus faecium ATCC 10541; experiment: as above; format: cell-based; details: ATCC10541, read-out: minimum growth inhibition concentration (MIC)
Source text: as §1, §2

[3] = system: Klebsiella pneumoniae ATCC 10031; experiment: as above; format: cell-based; details: ATCC10031, read-out: minimum growth inhibition concentration (MIC)
Source text: as §1, §2

[4] = system: Staphylococcus aureus ATCC 6538P; experiment: as above; format: cell-based; details: ATCC6538P, read-out: minimum growth inhibition concentration (MIC)
Source text: as §1, §2

[5] = Acute toxicity, single intravenous administration, 14 days survival; details: mouse, in vivo, ddy mice, single i.v., Behrens-Karber method
Method: UCT4-B was intravenously administered once to ddy mice weighing about 20 g (each group having 5 animals) and then the survival state of the animals was monitored for 14 days following the administration. Then LD50 of the compound was calculated based on the mortality of mice in each group in accordance with the Behrens-Karber method.

[6] = system: lymphocytic leukemia p338 tumor cells; experiment: Effect on lymphocytic leukemia (life-prolonging effect); format: in vivo, CDF1 male mice; details: i.p., 24 hours after i.p. transplantation
Method: 1×10^6 lymphocytic leukemia p338 tumor cells were intraperitoneally transplanted into CDF1 male mice weighing 22 g (each group having 5 animals). 24 hours after the trans- plantation, 0.2 ml of a solution of UCT4-B in physiological saline or 0.2 ml of physiological saline (the control group) was intraperitoneally administered to the animals.
The results of the test are expressed in terms of T/C (%) calculated by dividing the average survival days of each test group (T) with that of the control group (C).

[7] = Solubility

CC1C(O)C(=O)C2(C)C(CO)=CCCC2C1(C)CC(O)C1(C(=O)C=O)CO1 (stereo not shown) [UCT4-B]
MIC [1]: 8.3 µg/mL (≈ 21.8 µM)
MIC [2]: 4.1 µg/mL (≈ 10.8 µM)
MIC [3]: 2.1 µg/mL (≈ 5.52 µM)
MIC [4]: 4.1 µg/mL (≈ 10.8 µM)
LD50 at 336 h [5]: ≥ 50 mg/kg
Life-prolonging effect (T/C %) ([6]; 3 mg/kg): 124%
Life-prolonging effect (T/C %) ([6]; 6 mg/kg): 131%
Life-prolonging effect (T/C %) ([6]; 12 mg/kg): 127%
Life-prolonging effect (T/C %) ([6]; 25 mg/kg): 137%
Life-prolonging effect (T/C %) ([6]; 50 mg/kg): 141%
Solubility ([7]; acetonitrile): soluble
Solubility ([7]; chloroform): highly soluble
Solubility ([7]; ethyl acetate): highly soluble
Solubility ([7]; hexane): insoluble
Solubility ([7]; methanol): highly soluble
Solubility ([7]; water): soluble
